The target in data set [1] is T1, HSP70/A18 interaction (Homo sapiens, UniProt P0DMV8).
T1 construct: expressed in transfected cells
Briefly: AptaScreen high-throughput yeast two-hybrid dual luminescence screening of A18/HSP70 association. It counts as cell-based. The note with it: for IC50: dose-response, inhibition of A18 binding to HSP70; for Confirmation inhibition: hit confirmation; for inhibition at 10 µM: molecules screened at 10 μM. How it is done: Table 1. High throughput screening of chemical agonists of the A18 peptide aptamer. The screening was based on the ability of the molecules to inhibit the association A18/HSP70.
A high-throughput screening assay, AptaScreen™ (developed by Aptanomics SA; (Baines I C et al. Drug Discov Today. 2006;11:334-341; Rerole A L, et al. Cancer Res 20119;71:484-495)) was performed by the Company Imaxio (Lyon, France) on a library of almost 60,000 small molecules. The AptaScreen™ assay is based on an automated dual luminescence (luc and ruc reporter genes) yeast two-hybrid assay, with HSP70 expressed as a ‘bait’ and A18 aptamer expressed as a ‘prey’. The HSP70/A18 interaction directs the transcription of the luc reporter gene, while in the same assay a control protein/aptamer couple directs the transcription of the ruc reporter. A small molecule can be considered as ‘hit candidate’ when it inhibits the interaction between HSP70 and A18 (i.e. decreases the luciferase signal), but not the control interaction (i.e. no or little change in the ruc signal). Molecules were screened at a concentration of 10 μM and then hit candidates were confirmed by dose-response assays, following the standard protocol (Rerole A L, et al. Cancer Res 20119;71:484-495).
A high-throughput screening assay, AptaScreen™ (developed by Aptanomics SA; ^22,23), was performed by the Company Imaxio (Lyon, France) on a library of almost 60,000 small molecules including most of the marketed drugs. The AptaScreen™ assay is based on an automated dual luminescence (luc and ruc reporter genes) yeast two-hybrid assay, with HSP70 expressed as a ‘bait’ and a peptide aptamer (A18), the inventors previously isolated that bound to the ATP domain of HSP70 expressed as a ‘prey’ (Rerole A L, et al. Cancer Res 20119;71:484-495). A small molecule can be considered as ‘hit candidate’ when it inhibits the interaction between HSP70 and A18 (i.e. decreases the luciferase signal). Molecules were screened at a concentration of 10 μM. Eight molecules (hit candidates) were initially identified. From the dose-response studies, three of them were retained on the basis of their specificity and high inhibitory activity against A18 binding to HSP70 (Table 1 and 2).

In data set [2] the target is T1, HSP70/A18 interaction. The data set is described as follows: Ability to block HSP70/A18 interaction (Biacore). Conditions: block of HSP70/A18 interaction; read-out: Activity profil/50% effective concentration (EC50). In kind it is binding. The text has this:
Table 2. Selected “Hits” with high inhibitory activity against A18 binding to HSP70. Their chemical structure is shown as well as their ability to block HSP70/A18 interaction (Biacore).
In general terms: In SPR one partner is held on a chip, and binding of the other changes the refractive index at the surface.

The target of data set [3] is recombinant HSP70 (Homo sapiens, UniProt P0DMV8). The data set is described as follows: HSP70 chaperone activity, protein thermolability (aggregation) assay. It counts as biochemical. Conditions: 1 μM, heat shock 55° C., 1 h, recombinant HSP70 10 ng. How it is done:
FIG. 2: Small molecules hits A, B and C inhibit HSP70 chaperone activity. A) Protein aggregation was determined in the presence or absence of recombinant HSP70 (10 ng). When indicated A18 or molecules A, B and C were added (1 μM). B) Protein aggregation was determined in the presence or absence of recombinant HSP70, HSC70 or HSP90 (10 ng).
When indicated A18 or molecules A, B and C were added (1 μM). A0, a non-relevant peptide aptamer was used here as a negative control. Values are normalized for each HSP. 100% chaperone effect being the inhibition of protein aggregation induced by addition of the recombinant chaperones.
HSP70 chaperone activity was evaluated with a protein thermolability assay. HSF1−/− MEFs extracts were incubated 20 minutes on ice in lysis buffer (50 mM HEPES, 150 mM NaCl, 5 mM EDTA, 0.1% NP40) supplemented with protease inhibitors (Roche, France). […]
Cellular extracts, to which recombinant HSP70, HSP90 or HSC70 were added with or without the small molecules to test, were diluted to a final concentration of 2 mg. mL-1 in pH 7 Tris-HCl buffer and heated at 55° C. during 1 hour. After g−16,000 centrifugation at 4° C. during 10 minutes, supernatant native protein quantity was determined by Lowry method (Dc Assay Kits, Bio-Rad). This final protein concentration was then compared to the initial protein concentration in supernatants to quantify denatured proteins. […]

Data set [4] deals with Human cervix cancer Hela cells. The data set is described as follows: Chemo-sensitization to cisplatin, cell survival colorimetric assay, HeLa. It counts as cell-based. The note with it: molecule 2 μM with cisplatin 25 μM, 48 h. The method, then: (§1) FIG. 3. The chemical molecule hits sensitize cancer cells to cisplatin. A) Human cervix HeLa or B) mouse colorectal cancer CT-26 cells were incubated during 48 h with cisplatin (25 μM) in the presence of absence of molecules A, B and C (2 μM). Cell survival was measured by a colorimetric assay staining.
(§2) 3.5×10^4 adherent cells were plated onto 24-well culture plates in complete medium. Cells were treated with small molecules at various concentrations (1 μM to 30 μM) for 4 hours to determine cellular IC50. Then, cells of half of each 24-well culture plates were treated with cisplatin (CDDP, 25 μM) for 48 hours. Cell death was measured by the crystal violet colorimetric assay staining.
(§3) To study the effect of the molecules in cancer cells, the inventors used two different cancer cells lines: Human cervix cancer Hela cells and mouse colorectal cancer CT-26. Cells were treated with the small molecule hit (2 μM) either alone or together with cisplatin for 48 hours and cell survival was determined. […] Cells seem to die mainly by apoptosis, as detected by the amount of Annexin V positive/propidium iodide negative cells obtained after treatment with the molecule (FIG. 5). The inventors conclude that the hit candidates block HSP70 chaperone activity and sensitize cancer cells to apoptosis induced by cisplatin.

In data set [5] the test system is mouse colorectal cancer CT-26. Briefly: Chemo-sensitization to cisplatin, cell survival colorimetric assay, CT-26. It counts as cell-based. Conditions: CT-26, molecule 2 μM with cisplatin 25 μM, 48 h. How it is done: as §1, §2, §3
A short description of data set [6]: Solubility (statement). In kind it is physicochemical.

T1 sequence (P0DMV8 whole entry): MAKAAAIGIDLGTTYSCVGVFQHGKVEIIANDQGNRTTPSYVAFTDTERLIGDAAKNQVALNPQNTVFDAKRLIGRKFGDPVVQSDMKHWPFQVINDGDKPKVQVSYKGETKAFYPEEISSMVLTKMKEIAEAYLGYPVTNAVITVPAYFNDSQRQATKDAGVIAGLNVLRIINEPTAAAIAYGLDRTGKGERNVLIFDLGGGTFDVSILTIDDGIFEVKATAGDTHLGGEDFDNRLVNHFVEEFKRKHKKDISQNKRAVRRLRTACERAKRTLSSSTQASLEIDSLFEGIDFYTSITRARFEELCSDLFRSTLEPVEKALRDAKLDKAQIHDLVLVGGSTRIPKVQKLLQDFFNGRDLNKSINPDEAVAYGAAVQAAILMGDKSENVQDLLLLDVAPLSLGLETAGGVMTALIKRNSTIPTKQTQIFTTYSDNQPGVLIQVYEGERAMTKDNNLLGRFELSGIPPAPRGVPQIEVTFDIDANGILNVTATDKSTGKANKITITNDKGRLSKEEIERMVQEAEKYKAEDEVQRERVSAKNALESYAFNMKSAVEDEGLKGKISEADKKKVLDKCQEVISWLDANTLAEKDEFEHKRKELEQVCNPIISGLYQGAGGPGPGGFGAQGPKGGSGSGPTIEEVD
Sequence of recombinant HSP70 (P0DMV8 whole entry): as above

For orientation: IC50 means the concentration that inhibits the measured activity by half. Read a high IC50 as weaker potency. Broadly, the inhibition is the change of the read-out against control, counted positive when it falls. As for `O=C1N=C(N2CCCCC2)S/C1=C\c1ccccc1F` [Molecule A], in data set [1], the HSP70 specificity result is on record as “YES”, the IC50 came to 19.6 µM, the Confirmation inhibition was 34 and the inhibition at 10 µM worked out at 105%. In data set [2], the EC50 worked out at 19.6 µM. Also, the “Inhibition of HSP70 chaperone activity” value in data set [3] is on record as “only partially blocked”.

`CCOc1ccc(C)cc1S(=O)(=O)n1nnc2ccccc21` [Molecule B]: in data set [1], the HSP70 specificity result was “YES”, the IC50 is 0.2 µM, the Confirmation inhibition is 59 and the inhibition at 10 µM was 105%. The EC50 in data set [2] turned out to be 0.2 µM. Also, in data set [3], the “Inhibition of HSP70 chaperone activity” value is listed as “much more important inhibition”. Besides, the “Cell death induced by cisplatin” value in data set [4] is listed as “most important effect”. In addition, the “Cell death induced by cisplatin” value in data set [5] is listed as “most important effect”. Further, the Solubility entry in data set [6] is listed as “hardly soluble”.

The values above are taken from US20230000827A1, “INHIBITORS OF HSP70 PROTEIN” (INSERM (INSTITUTE NATIONAL DE LA SANTÉ ET DE LA RECHERCHE …, priority 2019, published 2023).
